# Molecular target: EZH2 (Homo sapiens, UniProt Q15910)
# Experiment: EZH2 assay: rPRC2 with biotinylated oligonucleosome substrates and 3H SAM, FlashPlate scintillation counting, IC50
# Format: biochemical
# Conditions: rPRC2, biotinylated oligonucleosome substrates, 3H SAM; read-out: EZH2 IC50
# Summary of the method: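 rPRC2 (2 nM EZH2) pre-incubated 20 min with compound (80 to 0.16 uM, ten 2-fold steps), then 60 min reaction with 0.2 uM 3H SAM, 0.2 uM biotinylated oligonucleosomes, 3.6 uM H3K27me3 peptide in Tris pH 8.5. SAH/EDTA quench; 4-parameter IC50 fit.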
# Chain of EZH2 (Q15910 whole entry): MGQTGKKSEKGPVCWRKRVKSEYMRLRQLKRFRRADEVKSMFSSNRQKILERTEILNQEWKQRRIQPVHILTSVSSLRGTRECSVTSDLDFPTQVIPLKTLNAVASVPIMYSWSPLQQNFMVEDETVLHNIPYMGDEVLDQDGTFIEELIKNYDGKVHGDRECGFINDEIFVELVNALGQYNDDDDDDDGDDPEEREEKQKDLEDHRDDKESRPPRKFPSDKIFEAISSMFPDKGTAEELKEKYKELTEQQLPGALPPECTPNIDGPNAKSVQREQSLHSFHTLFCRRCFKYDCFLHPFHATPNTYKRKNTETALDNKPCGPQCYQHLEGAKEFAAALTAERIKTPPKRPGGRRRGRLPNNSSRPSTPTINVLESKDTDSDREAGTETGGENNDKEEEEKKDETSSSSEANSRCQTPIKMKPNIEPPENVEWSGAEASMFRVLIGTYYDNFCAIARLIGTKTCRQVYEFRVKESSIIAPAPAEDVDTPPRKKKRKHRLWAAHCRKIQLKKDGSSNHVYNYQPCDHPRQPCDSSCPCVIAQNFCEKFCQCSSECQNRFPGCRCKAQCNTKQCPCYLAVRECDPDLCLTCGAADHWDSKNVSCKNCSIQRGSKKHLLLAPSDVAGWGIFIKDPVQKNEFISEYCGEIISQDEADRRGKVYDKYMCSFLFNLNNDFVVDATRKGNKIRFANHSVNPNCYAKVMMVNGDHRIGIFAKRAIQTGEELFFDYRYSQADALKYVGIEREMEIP
# Chain of EZH2 (O75530 whole entry partner): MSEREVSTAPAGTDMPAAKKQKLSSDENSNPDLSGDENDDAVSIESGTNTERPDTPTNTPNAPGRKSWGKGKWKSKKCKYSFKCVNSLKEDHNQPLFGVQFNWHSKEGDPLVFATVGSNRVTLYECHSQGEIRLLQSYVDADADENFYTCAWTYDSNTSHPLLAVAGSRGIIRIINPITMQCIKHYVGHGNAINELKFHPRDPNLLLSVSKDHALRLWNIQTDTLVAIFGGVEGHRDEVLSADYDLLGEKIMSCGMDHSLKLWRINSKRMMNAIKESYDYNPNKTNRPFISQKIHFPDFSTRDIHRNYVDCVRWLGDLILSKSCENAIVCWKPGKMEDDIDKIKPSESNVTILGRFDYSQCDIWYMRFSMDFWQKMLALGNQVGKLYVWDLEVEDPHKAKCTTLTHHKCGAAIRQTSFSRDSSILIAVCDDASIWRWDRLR
# Chain of EZH2 (Q15022 whole entry partner): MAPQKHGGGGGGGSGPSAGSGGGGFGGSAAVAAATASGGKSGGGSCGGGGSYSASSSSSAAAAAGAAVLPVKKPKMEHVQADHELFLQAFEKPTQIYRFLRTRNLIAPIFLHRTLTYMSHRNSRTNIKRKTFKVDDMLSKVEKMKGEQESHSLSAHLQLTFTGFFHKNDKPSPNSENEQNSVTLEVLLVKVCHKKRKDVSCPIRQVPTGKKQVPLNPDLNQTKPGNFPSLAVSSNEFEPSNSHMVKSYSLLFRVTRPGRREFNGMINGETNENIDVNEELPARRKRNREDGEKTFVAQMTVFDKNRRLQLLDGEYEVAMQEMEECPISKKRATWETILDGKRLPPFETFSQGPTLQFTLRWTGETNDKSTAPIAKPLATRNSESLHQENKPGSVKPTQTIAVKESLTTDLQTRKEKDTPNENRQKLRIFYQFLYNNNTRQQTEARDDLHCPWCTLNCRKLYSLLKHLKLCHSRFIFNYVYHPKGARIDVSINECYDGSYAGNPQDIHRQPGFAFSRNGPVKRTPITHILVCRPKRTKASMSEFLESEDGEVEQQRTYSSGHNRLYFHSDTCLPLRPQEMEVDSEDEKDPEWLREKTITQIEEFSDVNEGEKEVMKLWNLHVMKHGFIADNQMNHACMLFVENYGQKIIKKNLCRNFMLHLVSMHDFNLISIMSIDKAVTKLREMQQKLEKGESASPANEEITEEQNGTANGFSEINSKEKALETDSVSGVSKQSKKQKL
row,SMILES,IC50 [µM]
1,CC1(C)CC(NC(=O)c2ccc(Oc3cccc4c3CCCC4)cc2)CC(C)(C)N1 [Compound I-181],5 to 20
2,CC1(C)CC(NC(=O)c2ccc(COc3cccc4cnccc34)cc2)CC(C)(C)N1 [Compound I-182],5 to 20
3,C#Cc1cccc(OCc2ccc(C(=O)NC3CC(C)(C)NC(C)(C)C3)cc2)c1 [Compound I-184],< 5
4,CC1(C)CC(NC(=O)c2ccc3oc4c(C#N)cccc4c3c2)CC(C)(C)N1 [Compound I-187],20 to 80
5,CC1(C)CC(NC(=O)c2ccc(COc3cccc4c3CCCC4)cc2)CC(C)(C)N1 [Compound I-188],< 5
6,CC1(C)CC(NC(=O)c2ccc(COc3cccc4cccnc34)cc2)CC(C)(C)N1 [Compound I-189],20 to 80
7,CC1(C)CC(NC(=O)c2ccc(COc3cccc4ncccc34)cc2)CC(C)(C)N1 [Compound I-190],5 to 20
8,COc1cc(Oc2ccccc2C#N)ccc1C(=O)NC1CC(C)(C)NC(C)(C)C1 [Compound I-191],> 80
9,CC1(C)CC(C(=O)Nc2ccc(Oc3ccccc3)cc2)CC(C)(C)N1 [Compound I-192],> 80
10,CN1CCC(NC(=O)c2ccc(Oc3ccccc3C#N)c(Cl)c2)CC1 [Compound I-193],> 80
11,CC1(C)CC(NC(=O)c2ccc(Oc3ccccc3OCc3ccccc3)c(Cl)c2)CC(C)(C)N1 [Compound I-194],< 5
12,CC1(C)CC(NC(=O)c2ccc(Oc3ccccc3C3CCCCC3)c(Cl)c2)CC(C)(C)N1 [Compound I-195],5 to 20
13,CC1(C)CC(NC(=O)c2ccc(Oc3ccccc3C#N)c(N3CCOCC3)c2)CC(C)(C)N1 [Compound I-196],< 5
14,CC1(C)CC(NC(=O)c2ccc(Oc3ccccc3C#N)c(-c3ccccc3)c2)CC(C)(C)N1 [Compound I-197],< 5
15,CCCc1cc(C(=O)NC2CC(C)(C)NC(C)(C)C2)ccc1Oc1ccccc1C#N [Compound I-198],< 5
16,CC1(C)CC(NC(=O)c2ccc3cc(Oc4ccccc4C#N)ccc3c2)CC(C)(C)N1 [Compound I-200],20 to 80
17,CC1(C)CC(NC(=O)c2ccc(Oc3ccccc3C#N)c(Cc3ccccc3)c2)CC(C)(C)N1 [Compound I-201],< 5
18,CC1(C)CC(NC(=O)c2ccc(Oc3ccccc3C#N)c(-c3cncnc3)c2)CC(C)(C)N1 [Compound I-202],5 to 20
19,CC1(C)CC(NC(=O)c2ccc(Oc3ccccc3)cc2F)CC(C)(C)N1 [Compound I-203],> 80
20,COc1cc(Oc2ccccc2)ccc1C(=O)NC1CC(C)(C)NC(C)(C)C1 [Compound I-204],> 80
21,CC1(C)CC(NC(=O)c2ccc(Oc3ccccc3C#N)cn2)CC(C)(C)N1 [Compound I-205],5 to 20
22,CC1(C)CC(NC(=O)c2ccc(Oc3ccccc3-c3ccccc3)c(Cl)c2)CC(C)(C)N1 [Compound I-206],< 5
23,CC(Oc1ccccc1Oc1ccc(C(=O)NC2CC(C)(C)NC(C)(C)C2)cc1)c1ccccc1 (stereo not shown) [Compound I-208],5 to 20
24,CC1(C)CC(NC(=O)c2ccc(Oc3ccccc3OCc3ccncc3)cc2)CC(C)(C)N1 [Compound I-209],5 to 20
25,CC1(C)CC(NC(=O)c2ccc(Oc3ccccc3C(C)(C)C)c(Cl)c2)CC(C)(C)N1 [Compound I-210],20 to 80
26,CC1(C)CC(NC(=O)c2ccc(Oc3ccccc3C#N)c(-c3cccnc3)c2)CC(C)(C)N1 [Compound I-211],< 5

row,SMILES,IC50 [µM]
1,CC1(C)CC(NC(=O)c2ccc(Oc3ccccc3C#N)c(-c3ccsc3)c2)CC(C)(C)N1 [Compound I-212],< 5
2,CC1(C)CC(NC(=O)c2ccc(Oc3ccccc3C#N)c(-c3cn[nH]c3)c2)CC(C)(C)N1 [Compound I-213],< 5
3,Cc1noc(C)c1-c1cc(C(=O)NC2CC(C)(C)NC(C)(C)C2)ccc1Oc1ccccc1C#N [Compound I-214],20 to 80
4,CC1(C)CC(NC(=O)c2ccc(COc3ccccc3)c(Br)c2)CC(C)(C)N1 [Compound I-215],20 to 80
5,CC1(C)CC(NC(=O)c2ccc(Oc3ccccc3C#N)c(C(F)(F)F)c2)CC(C)(C)N1 [Compound I-218],< 5
6,CC1(C)CC(NC(=O)c2ccc(Oc3cccnc3C#N)c(Br)c2)CC(C)(C)N1 [Compound I-219],< 5
7,CC1(C)CC(NC(=O)c2ccc(Oc3ncccc3C#N)c(Br)c2)CC(C)(C)N1 [Compound I-220],< 5
8,CC1(C)CC(NC(=O)c2ccc(Oc3ccccc3C#N)c(C3CC3)c2)CC(C)(C)N1 [Compound I-221],< 5
9,CC1(C)CC(NC(=O)c2ccc(Oc3cccc4ncccc34)cc2)CC(C)(C)N1 [Compound I-222],> 80
10,C#Cc1ccccc1Oc1ccc(C(=O)NC2CC(C)(C)NC(C)(C)C2)cc1 [Compound I-224],5 to 20
11,CC1(C)CC(NC(=O)c2ccc(Oc3ccccc3-c3ccccn3)c(Cl)c2)CC(C)(C)N1 [Compound I-225],5 to 20
12,CC1(C)CC(NC(=O)c2ccc(Oc3ccccc3-c3ccncc3)c(Cl)c2)CC(C)(C)N1 [Compound I-226],< 5
13,CC1(C)CC(NC(=O)c2ccc(Oc3ccccc3-c3ccc(N)nc3)c(Cl)c2)CC(C)(C)N1 [Compound I-227],< 5
14,CC1(C)CC(NC(=O)c2ccc(Oc3ccccc3C3=CCNCC3)c(Cl)c2)CC(C)(C)N1 [Compound I-229],5 to 20
15,CC1(C)CC(NC(=O)c2ccc(Oc3ccccc3C3CCNCC3)c(Cl)c2)CC(C)(C)N1 [Compound I-230],5 to 20
16,CC1(C)CC(NC(=O)c2ccc(Oc3ccccc3OCc3ccccn3)cc2)CC(C)(C)N1 [Compound I-231],5 to 20
17,CC1(C)CC(NC(=O)c2ccc(Oc3ccccc3OCc3cccnc3)cc2)CC(C)(C)N1 [Compound I-232],20 to 80
18,CC1(C)CC(NC(=O)c2ccc(Oc3ccccc3C(=O)N3CCCC3)c(Cl)c2)CC(C)(C)N1 [Compound I-233],> 80
19,CC1(C)CC(NC(=O)c2ccc(Oc3cccc(CN4CCOCC4)c3)cc2)CC(C)(C)N1 [Compound I-234],> 80
20,CC1(C)CC(NC(=O)c2ccc(Oc3cccc(CN4CCCC4)c3)cc2)CC(C)(C)N1 [Compound I-235],5 to 20
21,CNCc1cccc(Oc2ccc(C(=O)NC3CC(C)(C)NC(C)(C)C3)cc2)c1 [Compound I-236],5 to 20
22,CC(C)c1cc(C(=O)NC2CC(C)(C)NC(C)(C)C2)ccc1Oc1ccccc1C#N [Compound I-237],< 5
23,CC1(C)CC(NC(=O)c2ccc(Oc3ccccc3C#N)c(C3CCCC3)c2)CC(C)(C)N1 [Compound I-238],5 to 20
24,CC1(C)CC(NC(=O)c2ccc(Oc3ccccc3C#N)c(COc3ccccc3)c2)CC(C)(C)N1 [Compound I-239],< 5
25,CC1(C)CC(NC(=O)c2ccc(COc3ccccc3C#N)cc2)CC(C)(C)N1 [Compound I-240],> 80
26,CC1(C)CC(NC(=O)c2ccc(CCc3ccccc3)cc2)CC(C)(C)N1 [Compound I-241],> 80

row,SMILES,IC50 [µM]
1,CC1(C)CC(NC(=O)c2ccc(Oc3nccc4ccccc34)c(Cl)c2)CC(C)(C)N1 [Compound I-242],20 to 80
2,Cc1cc(Oc2ccccc2C#N)ccc1C(=O)NC1CC(C)(C)NC(C)(C)C1 [Compound I-243],20 to 80
3,CC1(C)CC(NC(=O)c2ccc(Oc3c(Cl)cccc3C#N)cc2)CC(C)(C)N1 [Compound I-244],20 to 80
4,CC1(C)CC(NC(=O)c2ccc(Oc3ccccc3C#N)cc2F)CC(C)(C)N1 [Compound I-245],5 to 20
5,CN(C)C(=O)c1ccccc1Oc1ccc(C(=O)NC2CC(C)(C)NC(C)(C)C2)cc1Cl [Compound I-246],20 to 80
6,CN(C)Cc1cccc(Oc2ccc(C(=O)NC3CC(C)(C)NC(C)(C)C3)cc2)c1 [Compound I-247],20 to 80
7,COCc1ccccc1Oc1ccc(C(=O)NC2CC(C)(C)NC(C)(C)C2)cc1 [Compound I-248],20 to 80
8,CC1(C)CC(NC(=O)c2ccc(Oc3ncccc3C#N)c(Cl)c2)CC(C)(C)N1 [Compound I-249],5 to 20
9,CC1(C)CC(NC(=O)c2ccc(Oc3ccccc3CN3CCCC3)cc2)CC(C)(C)N1 [Compound I-250],20 to 80
10,CC1(C)CC(NC(=O)c2ccc(Oc3cccc(-c4cnc(N)nc4)c3)cc2)CC(C)(C)N1 [Compound I-251],20 to 80
11,CC1(C)CC(NC(=O)c2ccc(Oc3ccccc3-c3ccsc3)c(Cl)c2)CC(C)(C)N1 [Compound I-252],< 5
12,CC1(C)CC(NC(=O)c2ccc(Oc3ccccc3-c3ncco3)c(Cl)c2)CC(C)(C)N1 [Compound I-253],< 5
13,CC1(C)CC(NC(=O)c2ccc(Oc3cc(Br)ccc3C#N)c(Cl)c2)CC(C)(C)N1 [Compound I-255],< 5
14,Cc1cc(C(=O)NC2CC(C)(C)NC(C)(C)C2)ccc1Oc1cccc(-c2cccnc2)c1C#N [Compound I-261],< 5
15,Cc1cc(C(=O)NC2CC(C)(C)NC(C)(C)C2)ccc1Oc1cccc(C2CC2)c1C#N [Compound I-263],< 5
16,CC1(C)CC(NC(=O)c2ccc(Oc3ccccc3C#N)c(C#N)c2)CC(C)(C)N1 [Compound I-264],< 5
17,CCc1cc(C(=O)NC2CC(C)(C)NC(C)(C)C2)ccc1Oc1ccccc1C#N [Compound I-265],< 5
18,Cc1cc(C(=O)NC2CC(C)(C)NC(C)(C)C2)ccc1Oc1cccc(C(C)C)c1C#N [Compound I-267],< 5
19,CC1(C)CC(NC(=O)c2ccc(Oc3ccccc3)c(O)c2)CC(C)(C)N1 [Compound I-268],20 to 80
20,CC1(C)CC(NC(=O)c2ccc(Oc3ccccc3)c(OCc3ccccc3)c2)CC(C)(C)N1 [Compound I-269],20 to 80
21,CC1(C)CC(NC(=O)c2ccc(Oc3ccccc3C#N)c3ccccc23)CC(C)(C)N1 [Compound I-270],< 5
22,CC1(C)CC(NC(=O)c2ccc(Oc3ccccc3-c3cccnc3N)c(Cl)c2)CC(C)(C)N1 [Compound I-271],5 to 20
23,CC1(C)CC(NC(=O)c2ccc(Oc3ccccc3C(=O)Nc3ccccc3)c(Cl)c2)CC(C)(C)N1 [Compound I-272],20 to 80
24,CC1(C)CC(NC(=O)c2ccc(Oc3ccccc3CN)cc2)CC(C)(C)N1 [Compound I-273],20 to 80

# Source: US20130310379A1, “MODULATORS OF METHYL MODIFYING ENZYMES, COMPOSITIONS AND USES THEREOF” (CONSTELLATION PHARMACEUTICALS, priority 2010, published 2013)
